In patent publication US20050079152A1, “Methods of elicit, enhance and sustain immune responses against MHC class I-restricted epitopes, for prophylactic or therapeutic purposes” (priority 2003, published 2005):

Tested on: SSX241-49 epitope specific T cells
Assay: SSX2 tetramer staining in immunized mice
Assay type: in vivo
Details: for SSX2 antigen specificity, % of the available CD8 T cells (tetramer): entrained with pCBP plasmid, amplified with peptide analogue; for cross-reactivity with T cells specific for the SSX241-49 epitope: mouse, in vivo
Description: These analogues are cross-reactive with T cells specific for the SSX241-49 epitope. These examples illustrate that the entrain-and-amplify protocol can elicit a SSX2 antigen specificity that approaches 80% of the available CD8 T cells. The pCBP plasmid and principles of its design are disclosed in U.S. patent application Ser. No. 10/292,413 (Pub. No. 20030228634 A1) entitled EXPRESSION VECTORS ENCODING EPITOPES OF TARGET-ASSOCIATED ANTIGENS AND METHODS FOR THEIR DESIGN, which is hereby incorporated by reference in its entirety. Additional methodology, compositions, peptides, and peptide analogues are disclosed in U.S. Provisional Application No. ______, (Attorney Docket MANNK.038PR), filed on the same date as the instant application, entitled “SSX-2 PEPTIDE ANALOGS;” which is incorporated herein by reference in its entirety. Further methodology, compositions, peptides., and peptide analogues are disclosed in U.S. Provisional Application No. ______, (Attorney Docket MANNK.039PR), filed on the same date as the instant application, entitled “NY-ESO PEPTIDE ANALOGS;” which is incorporated herein by reference in its entirety.

Substance	SSX2 antigen specificity, % of the available CD8 T cells (tetramer) [%]	cross-reactivity with T cells specific for the SSX241-49 epitope
SSX241-49 K41F: K41F peptide analogue of SSX2-derived epitope KASEKIFYV (SSX2 41-49) (FASEKIFYV)	~80	cross-reactive
K41Y: K41Y peptide analogue of SSX2-derived epitope KASEKIFYV (SSX2 41-49) (YASEKIFYV)	~80	cross-reactive
